Source: PMC11915811, “Conformational activation and disulfide exchange in HIV-1 Env induce cell-free lytic/fusogenic transformation and enhance infection” (Journal of Virology, 2025)
Entries after “also recorded” stand apart in the source; their conditions may differ. Read-outs that look alike come from different tables or passages of the source.

Legend:
JRFL pseudovirus [1] = assay: Cell-free lysis of JRFL pseudovirus, p24 release detected by ELISA; conditions: 2 h at 37°C; for Lysis of JRFL pseudovirus in conjunction with Trx1 (in words): 1,000 nM compound + serial dilutions of Trx1; for p24 leakage from JRFL pseudovirus with thiol compound in place of Trx1: 1,000 nM KR13b + 1,000 nM free cysteine or glutathione, mean of three independent experiments
gp120 = conditions: read-out: Kd, gp120 binding affinity, cited from earlier work
JRFL pseudovirus [2] = format: cell-based, HIV-1; conditions: 1,000 nM Trx1; HOS CD4+ CCR5+ cells; normalized to pseudovirus + PBS
BaL.01 pseudovirus = format: cell-based, HIV-1; conditions: 1,000 nM Trx1; HOS CD4+ CCR5+ cells; normalized to pseudovirus + PBS
HXB2 pseudovirus = format: cell-based, HIV-1; conditions: 1,000 nM Trx1; HOS CD4+ CCR5+ cells; normalized to pseudovirus + PBS
VSV pseudovirus = format: cell-based, vesicular stomatitis virus

COc1ccnc2[nH]cc(C(=O)C(=O)N3CCN(C(=O)c4ccccc4)C[C@H]3C)c12 [BMS-806]
Lysis of JRFL pseudovirus in conjunction with Trx1 (in words) (JRFL pseudovirus [1]): did not | Kd (gp120; SPA (scintillation proximity assay)): 21.1 ± 1.9 nM

CNCc1ccc2c(c1)C[C@H](CN=C(N)N)[C@H]2NC(=O)C(=O)Nc1ccc(Cl)c(F)c1.O=C(O)C(F)(F)F.O=C(O)C(F)(F)F [BNM-III-170]
Lysis of JRFL pseudovirus in conjunction with Trx1 (in words) (JRFL pseudovirus [1]): did cause lysis | Kd (gp120; ITC): 47 nM

N[C@@H](CS)C(=O)O [cysteine]
p24 leakage from JRFL pseudovirus with thiol compound in place of Trx1 (JRFL pseudovirus [1]): Neither thiol compound caused leakage of p24 above background

N[C@@H](CCC(=O)N[C@@H](CS)C(=O)NCC(=O)O)C(=O)O [glutathione]
p24 leakage from JRFL pseudovirus with thiol compound in place of Trx1 (JRFL pseudovirus [1]): Neither thiol compound caused leakage of p24 above background

B1: Trx1: recombinant human thioredoxin-1, purchased from Cayman Chemical (protein)
chain: MVKQIESKTAFQEALDAAGDKLVVVDFSATWCGPCKMIKPFFHSLSEKYSNVIFLEVDVDDCQDVASECEVKCMPTFQFFKKGQKVGEFSGANKEKLEATINELV
Enhancement of pseudovirus infectivity (RLU) by exogenous Trx1 (JRFL pseudovirus [2]): at least doubling its RLU values | Enhancement of pseudovirus infectivity (RLU) by exogenous Trx1 (BaL.01 pseudovirus): at least doubling its RLU values | p24 release / lysis of JRFL pseudovirus by the component alone (control) (JRFL pseudovirus [1]; serial dilutions of the single component, no partner): no significant p24 release; also recorded: negligible lysis | Effect of preincubating virus with one component on lysis (order of addition) (JRFL pseudovirus [1]; virus preincubated with 1,000 nM of labelled component for 0–30 min, then 1,000 nM of the other (KR13b or Trx1) added, versus no preincubation): significant decrease in lytic effect at 10 min | Enhancement of pseudovirus infectivity (RLU) by exogenous Trx1 (HXB2 pseudovirus): at least doubling its RLU values | Enhancement of VSV infection by Trx1 (VSV pseudovirus): 10–40%
